Read-outs that look alike come from different tables or passages of the source.

One experiment concerns PAF. The experiment can be described thus: PAF-induced bronchospasm in guinea pigs. Also on record: species or system guinea pig (male Hartley). Conditions: Cavia porcellus, read-out: PAF Agonist Bronchospasm (in Vivo) % Inhibition.
The test system of a further experiment is Histamine. The experiment can be described thus: Histamine-induced bronchospasm in guinea pigs. Type of experiment: in vivo, guinea pig (male Hartley). Conditions: oral, histamine 10 ug/kg i.v. As for the experimental part:
Male Hartley guinea pigs (450-550 g) were obtained from Charles River Breeding Laboratories. The animals were fasted overnight and the following day were anesthetized with 0.9 ml/kg i.p. of dialurethane (containing 0.1 g/ml diallylbarbituric acid, 0.4 g/ml ethylurea and 0.4 g/ml urethane). The left jugular vein was cannulated for the administration of compounds. The trachea was cannulated and the animals were ventilated by a rodent respirator at 55 strokes/min. with a stroke volume of 4 ml. A side arm to the tracheal cannula was connected to a pressure transducer to obtain a continuous measure of inflation pressure. Bronchoconstriction was measured as the percent increase in inflation pressure that peaked within 5 min. after challenge with spasmogen. […] Each animal was challenged with only a single spasmogen. The effect of a compound on the bronchospasm is expressed as a percent inhibition of the increase in inflation pressure compared to the increase in a control group.

Experiment [1] concerns PAF-induced platelet aggregation (human platelet-rich plasma). The experiment can be described thus: PAF-induced platelet aggregation (in vitro). Type of experiment: cell-based. Conditions: PAF 1-5×10^-8 M, read-out: PAF Antagonism (in vitro) IC50. The protocol:
Platelet-activating factor (PAF) causes aggregation of platelets by a receptor-mediated mechanism. Therefore, PAF-induced platelet aggregation provides a simple and convenient assay to screen compounds for PAF antagonism.
Blood was centrifuged at 110× g for 15 min. and the supernatant platelet-rich plasma (PRP) carefully transferred into a polypropylene tube. Platelet-poor-plasma (PPP) was prepared by centrifuging PRP at 12,000× g for 2 min. (Beckman Microfuge B). PRP was used within 3 hr. of drawing the blood.
PAF was dissolved in chloroform:methanol (1:1, v/v) at a concentration of 2 mg/ml and stored at -70° C. An aliquot of this solution was transferred to a polypropylene tube and dried under a flow of nitrogen gas. […] This stock solution was further diluted to appropriate concentrations in Hepes-saline-BSA buffer. Collagen (Sigma) and adenosine diphosphate (ADP) (Sigma) were purchased as solutions. Test compounds were initially dissolved in dimethyl sulfoxide (DMSO) at a concentration of 50 mM and then further diluted in Hepes-saline-BSA buffer to achieve appropriate concentrations.
When an aggregating agent such as PAF is added to PRP, platelets aggregate. An aggregometer quantifies this aggregation by measuring and comparing light (infra-red) transmission through PPP and PRP. Aggregation assays were performed using a dual-channel aggregometer (Model 440, Chrono-Log Corp., Havertown, Pa.). PRP (0.45 ml) in aggregometer cuvettes was continually stirred (37° C.). […] Incubations were continued until the increase in light transmission reached a maximum (usually 2 min.). This increase in light transmission reflecting platlet aggregation is transmitted to a computer by the Chrono-Log model 810 AGGRO/LINK interface. The AGGRO/LINK calculates the slope of transmission change, thus providing the rate of aggregation. Values for inhibition were calculated by comparing rates of aggregation obtained in the absence and the presence of the compound. For each experiment, a standard PAF antagonist such as 8-chloro-6,11-dihydro-11-(1-acetyl-4-piperidylidene)-5H-benzo[5,6]cyclohepta[1,2-b]pyridine was used as a positive control.
Compounds that inhibit PAF-induced aggregation were tested against several other aggregating agents including collagen (0.2 mg/ml) and ADP (2 μM).

Regarding `CCOC(=O)N1CCC(=C2c3ccc(Cl)cc3CCc3cccnc32)CC1` [Compound 1, reference compound], the inhibition in vivo at 10 mg/kg in the experiment with PAF (po) is below 50%. The “Histamine Agonist Bronchospasm (in Vivo) % Inhibition” value in the experiment with Histamine (1 mg/kg) was above 50%.
With `[O-][n+]1ccc(CN2CCC(=C3c4ccccc4CCc4ccccc43)CC2)cc1` [Compound 6], in experiment [1], the IC50 turned out to be 3.4 µM. Besides, the inhibition in vivo at 3 mg/kg in the experiment on PAF (oral, PAF 0.4 μg/kg i.v.) was found to be 0%.
As for `[O-][n+]1ccc(CN2CCN(C3c4ccc(Cl)cc4CCc4cccnc43)CC2)cc1` (racemic) [Compound 7], the IC50 in experiment [1] was found to be 0.71 µM. Besides, the inhibition in vivo at 3 mg/kg in the experiment with PAF (oral, PAF 0.4 μg/kg i.v.) was found to be 81%. Moreover, the “Histamine Agonist Bronchospasm (in Vivo) % Inhibition” value with Histamine (3 mg/kg) is 100%.
Consider `[O-][n+]1ccc(CN2CCC(=C3c4ccc(Cl)cc4SCc4cccnc43)CC2)cc1` [Compound 8], for which the IC50 in experiment [1] turned out to be 1 µM. Besides, in the experiment on PAF (oral, PAF 0.4 μg/kg i.v.), the inhibition in vivo at 5 mg/kg was determined as 67%. In the experiment on Histamine (1 mg/kg), the “Histamine Agonist Bronchospasm (in Vivo) % Inhibition” value stood at 83%.
Regarding `[O-][n+]1ccc(CN2CCN(C3c4ccc(Cl)cc4OCc4cccnc43)CC2)cc1` (racemic) [Compound 9], in experiment [1], the half-inhibitory concentration (IC50) was 1.7 µM. For the same compound, in the experiment with PAF (oral, PAF 0.4 μg/kg i.v.), the inhibition in vivo at 3 mg/kg was 22%.
For `Clc1ccc2c(c1)CCc1cccnc1C2=C1CCN(Cc2ccncc2)CC1` [Compound 3], in that order: 7.3 µM and 32%.
As to `CC(=O)N1CCC(=C2c3ccc(Cl)cc3CCc3cccnc32)CC1` [Compound 2, reference compound], the 50% inhibitory concentration (IC50) in experiment [1] turned out to be 0.61 µM. Besides, the inhibition in vivo at 5 mg/kg in the experiment on PAF (oral, PAF 0.4 μg/kg i.v.) came to 59%. In the experiment with Histamine (3 mg/kg), the “Histamine Agonist Bronchospasm (in Vivo) % Inhibition” value was 49%.
On to `[O-][n+]1ccc(CN2CCC(=C3c4ccccc4Oc4cccnc43)CC2)cc1` [Compound 10], for which the IC50 in experiment [1] was determined as 8.1 µM.
Turning to `[O-][n+]1ccc(CN2CCC(=C3c4ccc(Cl)cc4CCc4cccnc43)CC2)cc1` [Compound 4], in experiment [1], the IC50 was found to be 4.1 µM. Also, the inhibition in vivo at 3 mg/kg in the experiment with PAF (oral, PAF 0.4 μg/kg i.v.) came out at 35%. Besides, the “Histamine Agonist Bronchospasm (in Vivo) % Inhibition” value in the experiment on Histamine (1 mg/kg) is on record as 96%.
For `[O-][n+]1ccc(CN2CCC(=C3c4ccccc4C=Cc4ccccc43)CC2)cc1` [Compound 5], the IC50 in experiment [1] is 7.4 µM. Besides, in the experiment on PAF (oral, 10 mg/kg, PAF 0.4 μg/kg i.v.), the inhibition in vivo at 10 mg/kg came out at 15%.

The values above are taken from patent US5422351A, “Bis-benzo or benzopyrido cyclohepta piperidene, piperidylidene and piperazine compounds, compositions and methods of use” (Schering Corporation, priority 1992, dated 1995).
